# Read-outs that look alike come from different tables or passages of the source.
# What was measured:
# [1] = previous reported; cited from earlier work
# PDX1 tumors = test: Patient-derived xenograft (PDX1) model of endometrial cancer, tumor growth; type: in vivo; conditions: PDX1 mice, twice a week for 4 weeks; compared to control PLGA nanoparticles (combination: compared to all other groups)
# Method: Patient-derived xenograft (PDX) studies: A PDX model of endometrial cancer (PDX1) has been previously described (Luo et al., 2010). NOD.Cg-Prkdcscid Il2rgtm1Wjl/SzJ (NSG, Jackson Laboratories, Bar Harbor, Me.) immunodeficient female mice at 8 weeks of age were injected with passage 3 of PDX1 tumor tissue (10 mg/100 μl medium) into the right flank subcutaneously. The mice were randomly divided into 4 groups, with 5 mice per drug treated group, and 4 mice comprised the empty nanoparticle control group. Treatment was started on day 15 after engraftment of cells. The dose of pristimerin delivered in nanoparticles was 60 μg for each mouse and was administered by intravenous injection (IV) injection twice a week for a total of 4 weeks. The dose of cisplatin was […] for each mouse and was administered by intraperitoneal (IP) injection twice a week for a total of 4 weeks. After 2 weeks of treatment, tumors were measured weekly using calipers, and volumes were calculated using the formula length×width^2/2.
# All animal studies were performed under animal protocols #7051085 approved by the University of Iowa Institutional Animal Care and Use Committee (Iowa City, Iowa). MTDH knockout mice were generated as described previously (Meng et al., 2015). […] After 2 weeks of treatment, tumors were measured weekly using calipers, and volumes were calculated using the formula […].
# [2] = Solubility and pharmacokinetics (statement); conditions: pristimerin in solution
# [3] = biological target: P-glycoprotein (P-gp) efflux transporter (Homo sapiens, UniProt P08183); conditions: not told; cited from earlier work
# P-glycoprotein (P-gp) efflux transporter, sequence (P08183 whole entry): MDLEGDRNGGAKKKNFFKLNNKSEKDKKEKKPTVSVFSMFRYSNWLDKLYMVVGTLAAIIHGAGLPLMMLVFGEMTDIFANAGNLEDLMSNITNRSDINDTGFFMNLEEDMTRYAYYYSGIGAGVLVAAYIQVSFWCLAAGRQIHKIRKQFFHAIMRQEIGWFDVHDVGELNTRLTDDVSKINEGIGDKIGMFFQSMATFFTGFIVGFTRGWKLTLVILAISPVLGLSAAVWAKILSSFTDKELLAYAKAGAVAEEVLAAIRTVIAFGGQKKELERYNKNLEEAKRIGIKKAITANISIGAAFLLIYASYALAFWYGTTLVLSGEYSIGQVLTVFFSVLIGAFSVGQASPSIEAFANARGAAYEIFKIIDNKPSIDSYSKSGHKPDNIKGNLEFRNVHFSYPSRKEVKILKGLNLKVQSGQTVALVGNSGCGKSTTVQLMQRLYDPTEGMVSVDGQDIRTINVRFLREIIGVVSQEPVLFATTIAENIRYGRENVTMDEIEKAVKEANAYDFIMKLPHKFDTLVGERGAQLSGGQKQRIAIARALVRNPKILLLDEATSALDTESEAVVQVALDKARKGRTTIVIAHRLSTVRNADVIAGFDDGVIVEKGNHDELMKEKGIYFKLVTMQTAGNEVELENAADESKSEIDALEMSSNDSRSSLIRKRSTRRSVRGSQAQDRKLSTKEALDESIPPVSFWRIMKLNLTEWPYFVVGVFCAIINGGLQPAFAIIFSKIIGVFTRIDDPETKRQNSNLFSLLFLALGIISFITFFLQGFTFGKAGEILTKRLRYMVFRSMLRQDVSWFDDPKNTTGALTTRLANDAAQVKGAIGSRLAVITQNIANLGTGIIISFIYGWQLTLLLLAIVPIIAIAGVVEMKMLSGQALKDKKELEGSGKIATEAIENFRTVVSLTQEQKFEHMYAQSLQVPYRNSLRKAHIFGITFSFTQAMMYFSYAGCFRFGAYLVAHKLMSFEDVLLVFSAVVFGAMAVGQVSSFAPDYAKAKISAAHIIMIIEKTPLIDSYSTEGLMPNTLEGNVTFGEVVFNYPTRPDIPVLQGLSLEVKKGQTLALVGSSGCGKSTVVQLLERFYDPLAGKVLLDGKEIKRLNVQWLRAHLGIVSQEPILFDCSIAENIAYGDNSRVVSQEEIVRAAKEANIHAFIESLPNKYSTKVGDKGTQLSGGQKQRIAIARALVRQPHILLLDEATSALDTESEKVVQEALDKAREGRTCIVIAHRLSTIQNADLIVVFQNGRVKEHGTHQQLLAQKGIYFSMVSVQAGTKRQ
# KLE cells = test: Cell viability by WST-1 assay in KLE cells; type: cell-based; conditions: Homo sapiens, pristimerin 72 hours
# Method: (§1) Cell viability was determined by WST-1 assay. Cells were seeded into 96-well plates (1×10^4 cells per well) then treated with cisplatin (Fresenius Kabi Oncology Ltd, Haryana, India) or the combination of cisplatin with pristimerin in solution (Cayman Chemical, Ann Arbor, Mich.). Cell viability was evaluated using the cell proliferation reagent WST-1 (Roche, Germany) according to the manufacturer's protocol. The absorbance was measured with a micro-plate reader (BioRad). Data were calculated as percent (%) viability relative to untreated control, which was set at 100%.
# as §1, with “Ltd.,” for “Ltd,”, “Absorbance” for “The absorbance”, “microplate” for “micro-plate”
# Hec50 cells = test: Cell viability by WST-1 assay in Hec50 cells; type: cell-based; conditions: pristimerin 72 hours
# Method: as §1
# as §1, with “Ltd.,” for “Ltd,”, “Absorbance” for “The absorbance”, “microplate” for “micro-plate”
# MDA-MB-231 cells = test: Cell viability by WST-1 assay in MDA-MB-231 cells; type: cell-based; conditions: Homo sapiens, pristimerin 72 hours
# Method: as §1
# as §1, with “Ltd.,” for “Ltd,”, “Absorbance” for “The absorbance”, “microplate” for “micro-plate”
smiles,measurement,setting,value
CC1=C(O)C(=O)C=C2C1=CC=C1[C@@]2(C)CC[C@@]2(C)[C@@H]3C[C@](C)(C(=O)O)CC[C@]3(C)CC[C@]12C [celastrol],solubility and pharmacokinetics,[1],poor
N.N.[Cl][Pt][Cl] [cisplatin],tumor growth,PDX1 tumors,significantly inhibited
"COC(=O)[C@]1(C)CC[C@]2(C)CC[C@]3(C)C4=CC=C5C(=CC(=O)C(O)=C5C)[C@]4(C)CC[C@@]3(C)[C@@H]2C1 [pristimerin, Pristimerin]",solubility and pharmacokinetics,[2],poor
same,substrate to P-gp,[3],substrate
same,IC50,KLE cells,< 1000 nM
same,IC50,Hec50 cells,< 1000 nM
same,IC50,MDA-MB-231 cells,< 1000 nM

# Source: US20220241214A1, “NAN[…] W METHIDES AND COMPOSITIONS FOR USE” (priority 2019, published 2022)
